The source of these data is patent publication US10280163B2 (BeiGene, Ltd., priority 2015, dated 2019).

Test [1] deals with T1, cellular IDO1 in HeLa cells (Homo sapiens, UniProt P14902).
T1 construct: endogenous in cells; host or cells: HeLa cells (American Type Tissue Culture Collection), induced with human recombinant IFN-γ
Description: HeLa cell-based IDO1 Kyn (kynurenine) production assay. Particulars: IFN-γ 100 ng/mL, 48 hours. The method, boiled down: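 IFN-γ-induced HeLa cells (100 ng/mL) in phenol red-free DMEM with 0.4 mM L-Trp, compounds added together with IFN-γ, 48 h at 37 °C. Supernatant Kyn read at 480 nm after TCA precipitation and 4-(dimethylamino)benzaldehyde reaction. IC50 from four-parameter logistic fit.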

Another test has as its target T2, Recombinant IDO1 (Homo sapiens, UniProt P14902).
T2 construct: His tag (N); made in house; host or cells: E. coli
Briefly: IDO1 enzymatic assay. Conditions: 50 nM IDO1, 1.3 mM D-tryptophan, read-out: Enzyme IC50 (nM) IDO1. In kind it is biochemical. The procedure, abridged:
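N-terminally His-tagged enzyme from E. coli (50 nM) was incubated with compound, 1.3 mM D-tryptophan, 5 mM ascorbate, 6.25 μM methylene blue and 0.4 mg/mL catalase in 50 mM potassium phosphate pH 7.5, 0.1% BSA for 1.5 h at 24° C. N′-formylkynurenine formation was followed at 321 nm for 1 h; IC50 from rate slopes.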

The next test addresses T3, Recombinant TDO (Homo sapiens, UniProt P48775).
T3 construct: His tag (C); made in house; host or cells: E. coli
Briefly: TDO enzymatic assay. It is filed as biochemical. Particulars: 100 nM TDO, 0.5 mM L-tryptophan, read-out: Enzyme IC50 (nM) TDO. The method, then:
Recombinant TDO was overexpressed and purified from E. coli cells with a C-terminal His tag. TDO enzymatic assay was performed using the same methodology as IDO1 enzymatic assay except that 100 nM TDO and 0.5 mM L-tryptophan (Km concentration) were used in the TDO assay.

The mark [2] stands for this setting: Table 1, 5-substituted imidazo[1,5-a]pyridines.
Where [3] appears, read: Table 2, 8-substituted imidazo[1,5-a]pyridines.

Structures are written as SMILES. Where two headings read alike, the source gives them in different places.

T3 sequence (P48775 whole entry): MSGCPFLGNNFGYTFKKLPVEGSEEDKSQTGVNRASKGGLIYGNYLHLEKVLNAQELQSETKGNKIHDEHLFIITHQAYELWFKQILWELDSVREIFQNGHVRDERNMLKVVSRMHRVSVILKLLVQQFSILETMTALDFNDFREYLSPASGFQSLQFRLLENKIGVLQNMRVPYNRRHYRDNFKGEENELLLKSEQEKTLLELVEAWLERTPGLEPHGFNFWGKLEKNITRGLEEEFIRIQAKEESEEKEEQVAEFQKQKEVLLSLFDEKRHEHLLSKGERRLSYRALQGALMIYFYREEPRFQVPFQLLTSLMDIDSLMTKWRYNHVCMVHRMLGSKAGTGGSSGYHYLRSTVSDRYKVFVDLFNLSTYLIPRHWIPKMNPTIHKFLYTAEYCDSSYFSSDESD
T2 sequence (P14902 whole entry): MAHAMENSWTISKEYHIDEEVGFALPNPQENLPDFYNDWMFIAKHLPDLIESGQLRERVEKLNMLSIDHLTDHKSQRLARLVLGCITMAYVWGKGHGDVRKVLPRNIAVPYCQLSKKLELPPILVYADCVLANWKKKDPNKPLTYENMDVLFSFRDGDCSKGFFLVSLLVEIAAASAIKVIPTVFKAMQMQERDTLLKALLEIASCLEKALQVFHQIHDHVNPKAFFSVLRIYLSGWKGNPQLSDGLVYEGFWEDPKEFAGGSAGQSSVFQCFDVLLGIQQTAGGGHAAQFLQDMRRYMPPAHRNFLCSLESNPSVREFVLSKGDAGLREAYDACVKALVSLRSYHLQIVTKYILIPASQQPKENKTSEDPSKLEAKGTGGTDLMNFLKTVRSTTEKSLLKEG
T1 sequence (P14902 whole entry): as above

For the compound `OC(c1cccc2cncn12)C1CCCCC1` (single isomer, unassigned) [Example A001a], in test [1] (setting [2]), the EC50 is over 10 µM. The IC50 worked out at 41 nM on Recombinant IDO1 (setting [2]) and 610 nM at Recombinant TDO (setting [2]).

In the case of `OC(CC1CCCCC1)c1cc(Cl)cc2cncn12` (single isomer, unassigned) [Example A102a], in test [1] (setting [2]), the EC50 amounted to 0.346 µM. Further, the values for the IC50 at Recombinant IDO1 (setting [2]) and at Recombinant TDO (setting [2]) were 15 nM and 73 nM, respectively.

For the compound `OC(CC1CCCCC1)c1cc(Cl)cc2cncn12` (single isomer, unassigned) [Example A102b], the EC50 in test [1] (setting [2]) is over 10 µM. The IC50 at Recombinant IDO1 (setting [2]) stood at 510 nM; on Recombinant TDO (setting [2]), 1200 nM.

`OC(c1cc(C(F)(F)F)cc2cncn12)C1CCCCC1` (single isomer, unassigned) [Example A109a] displayed an EC50 in test [1] (setting [2]) of 2.1 µM. In addition, the IC50 on Recombinant IDO1 (setting [2]) turned out to be 15 nM; on Recombinant TDO (setting [2]), 97 nM.

In test [1] (setting [2]), `OC(c1cc(C(F)(F)F)cc2cncn12)C1CCCCC1` (single isomer, unassigned) [Example A109b] gave an EC50 of over 10 µM. Besides, the IC50 at Recombinant IDO1 (setting [2]) is 1400 nM; at Recombinant TDO (setting [2]), 1200 nM.

For the compound `OC(CC1CCCCC1)c1cc(C(F)(F)F)cc2cncn12` (single isomer, unassigned) [Example A114a], the concentration giving a half-maximal response (EC50) in test [1] (setting [2]) is over 10 µM. Moreover, the IC50 at Recombinant IDO1 (setting [2]) was 890 nM; at Recombinant TDO (setting [2]) it was 2600 nM.

`OC(CC1CCCCC1)c1cc(C(F)(F)F)cc2cncn12` (single isomer, unassigned) [Example A114b] gave an EC50 in test [1] (setting [2]) of 5.43 µM. Moreover, the IC50 on Recombinant IDO1 (setting [2]) is 74 nM; on Recombinant TDO (setting [2]), 170 nM.

For `OC(c1c(Cl)ccc2cncn12)C1CCCCC1` (single isomer, unassigned) [Example A116a], the EC50 in test [1] (setting [2]) was 0.27 µM. Moreover, the values for the IC50 on Recombinant IDO1 (setting [2]) and on Recombinant TDO (setting [2]) were 11 nM and 610 nM, respectively.

Compound `OC(c1c(Cl)ccc2cncn12)C1CCCCC1` (single isomer, unassigned) [Example A116b] had an EC50 in test [1] (setting [2]) of over 10 µM. Also, the IC50 at Recombinant IDO1 (setting [2]) was found to be 4800 nM; on Recombinant TDO (setting [2]), 67000 nM.

`OC(CC1CCCCC1)c1c(Cl)ccc2cncn12` (single isomer, unassigned) [Example A117a] displayed an EC50 in test [1] (setting [2]) of 0.092 µM. Moreover, the IC50 was 11 nM on Recombinant IDO1 (setting [2]) and 4100 nM on Recombinant TDO (setting [2]).

In turn, `OC(CC1CCCCC1)c1c(Cl)ccc2cncn12` (single isomer, unassigned) [Example A117b] returned an EC50 in test [1] (setting [2]) of over 10 µM. Further, the IC50 at Recombinant IDO1 (setting [2]) turned out to be 1600 nM; at Recombinant TDO (setting [2]) it was 35000 nM.

`OC(c1c(Br)ccc2cncn12)C1CCCCC1` (single isomer, unassigned) [Example A118a] displayed an EC50 in test [1] (setting [2]) of 0.346 µM. Also, the IC50 at Recombinant IDO1 (setting [2]) was 14 nM; on Recombinant TDO (setting [2]), 1700 nM.

The compound `OC(c1c(Br)ccc2cncn12)C1CCCCC1` (single isomer, unassigned) [Example A118b] registered an EC50 in test [1] (setting [2]) of over 10 µM. Also, the IC50 at Recombinant IDO1 (setting [2]) was determined as 1600 nM; at Recombinant TDO (setting [2]), 53000 nM.

The compound `OC(CC1CCCCC1)c1c(Br)ccc2cncn12` (single isomer, unassigned) [Example A119a] gave an EC50 in test [1] (setting [2]) of 0.066 µM. Also, the IC50 at Recombinant IDO1 (setting [2]) was 14 nM; on Recombinant TDO (setting [2]), 14000 nM.

In turn, `OC(CC1CCCCC1)c1c(Br)ccc2cncn12` (single isomer, unassigned) [Example A119b] returned a concentration giving a half-maximal response (EC50) in test [1] (setting [2]) of 9.43 µM. Further, the IC50 at Recombinant IDO1 (setting [2]) turned out to be 1300 nM; at Recombinant TDO (setting [2]), 38000 nM.

In turn, `OC(CC1CCCCC1)c1c(I)ccc2cncn12` (single isomer, unassigned) [Example A124a] gave an EC50 in test [1] (setting [2]) of 0.092 µM. Also, the IC50 at Recombinant IDO1 (setting [2]) came out at 9 nM; at Recombinant TDO (setting [2]), 8800 nM.

Regarding `OC(CC1CCCCC1)c1c(I)ccc2cncn12` (single isomer, unassigned) [Example A124b], the EC50 in test [1] (setting [2]) is over 10 µM. Also, the IC50 amounted to 1100 nM at Recombinant IDO1 (setting [2]) and 95000 nM at Recombinant TDO (setting [2]).

Consider `OC(CC1CCCCC1)c1c(C2CC2)ccc2cncn12` (single isomer, unassigned) [Example A139a], for which the IC50 was 11 nM on Recombinant IDO1 (setting [2]) and 1800 nM at Recombinant TDO (setting [2]).

Consider `OC(CC1CCCCC1)c1c(C2CC2)ccc2cncn12` (single isomer, unassigned) [Example A139b], for which the values for the IC50 at Recombinant IDO1 (setting [2]) and on Recombinant TDO (setting [2]) were 4500 nM and 13000 nM, respectively.

With `O[C@@H](c1cc(Cl)cc2cncn12)C1CCCCC1` [Example A101b, (R)-(7-chloroimidazo[1,5-a]pyridin-5-yl)(cyclohexyl)methanol], the figures for the IC50 at Recombinant IDO1 (setting [2]) and on Recombinant TDO (setting [2]) were 890 nM and 230 nM, respectively.

On to `OC(CC1CCCCC1)c1cc(C(F)(F)F)cc2cncn12` (centres unmarked) [Example A114, 2-cyclohexyl-1-(7-(trifluoromethyl)imidazo[1,5-a]pyridin-5-yl)ethan-1-ol], for which the results for the IC50 on Recombinant IDO1 (setting [2]) and at Recombinant TDO (setting [2]) were 260 nM and 420 nM, respectively.

With `OC(c1c(C(F)(F)F)ccc2cncn12)C1CC1` (centres unmarked) [Example A132, cyclopropyl(6-(trifluoromethyl)imidazo[1,5-a]pyridin-5-yl)methanol], the results for the IC50 at Recombinant IDO1 (setting [2]) and at Recombinant TDO (setting [2]) were 210 nM and 75000 nM, respectively.

As for `OC(c1c(Cl)c(Br)cc2cncn12)C1CC1` (centres unmarked) [Example A150, (7-bromo-6-chloroimidazo[1,5-a]pyridin-5-yl)(cyclooropyl)methanol], the values for the IC50 at Recombinant IDO1 (setting [2]) and at Recombinant TDO (setting [2]) were 130 nM and 200 nM, respectively.

Regarding `OC(c1c(Cl)c(C(F)(F)F)cc2cncn12)C1CCCCC1` (centres unmarked) [Example A155, (6-chloro-7-(trifluoromethyl)imidazo[1,5-a]pyridin-5-Yl)(cyclohexyl)methanol], the results for the IC50 on Recombinant IDO1 (setting [2]) and at Recombinant TDO (setting [2]) were 1000 nM and 1600 nM, respectively.

In the case of `OC(c1cccn2cncc12)C1CCCC1` (centres unmarked) [Example B002, Cyclopentyl(imidazo[1,5-a]pyridin-8-yl)methanol], the IC50 came to 2000 nM on Recombinant IDO1 (setting [3]) and 810 nM on Recombinant TDO (setting [3]).

For `OC(c1ccccc1)c1cccn2cncc12` (centres unmarked) [Example B004, Imidazo[1,5-a]pyridin-8-yl(phenyl)methanol], the IC50 at Recombinant IDO1 (setting [3]) is 17000 nM; at Recombinant TDO (setting [3]) it was 3900 nM.

Consider `OC(c1cccn2cncc12)C1CCCCCC1` (centres unmarked) [Example B005, Cycloheptyl(imidazo[1,5-a]pyridin-8-yl)methanol], for which the IC50 at Recombinant IDO1 (setting [3]) was 990 nM; on Recombinant TDO (setting [3]), 740 nM.

Compound `NCC(=O)N1CCCC(C(O)c2c(C3CC3)ccn3cncc23)C1` (centres unmarked) [Example B132, 2-Amino-1-(3-((7-cyclopropylimidazo[1,5-a]pyridin-8-yl)(hydroxy)methyl)piperidin-1-yl)ethan-1-one] had an EC50 in test [1] (setting [3]) of over 10 µM. Besides, at Recombinant IDO1 (setting [3]), the IC50 is 13000 nM.

In test [1] (setting [3]), `O=C(c1ccccc1)N1CCCC(C(O)c2c(C3CC3)ccn3cncc23)C1` (centres unmarked) [Example B134, (3-((7-Cyclopropylimidazo[1,5-a]pyridin-8-yl)(hydroxy)methyl)piperidin-1-yl)(phenyl) methanone] gave an EC50 of over 10 µM. Further, the IC50 on Recombinant IDO1 (setting [3]) was 2000 nM.

Take `OCC1(C(O)c2c(C3CC3)ccn3cncc23)CCCCC1` (centres unmarked) [Example B136, (7-Cyclopropylimidazo[1,5-a]pyridin-8-yl)(1-(hydroxymethyl)cyclohexyl)methanol]: the response in test [1] (setting [3]) was half-maximal at 0.286 µM (EC50). Besides, at Recombinant IDO1 (setting [3]), the IC50 was 760 nM.

Take `CCOC(COCC1(C(O)c2c(C3CC3)ccn3cncc23)CCCCC1)OCC` (centres unmarked) [Example B137, (7-Cyclopropylimidazo[1,5-a]pyridin-8-yl)(1-((2,2-diethoxyethoxy)methyl)cyclohexyl)methanol]: a half-maximal effect in test [1] (setting [3]) (EC50) was put at 3.29 µM. Moreover, the IC50 at Recombinant IDO1 (setting [3]) stood at 2200 nM.

`O=C(O)C1CCCC(C(O)c2c(C3CC3)ccn3cncc23)C1` (centres unmarked) [Example B138, 3-((7-Cyclopropylimidazo[1,5-a]pyridin-8-yl)(hydroxy)methyl)cyclohexane-1-carboxylic acid] registered an EC50 in test [1] (setting [3]) of over 10 µM. Also, at Recombinant IDO1 (setting [3]), the IC50 turned out to be 1000 nM.

`OC(c1c(C2CC2)ccn2cncc12)C1CC2CC2C1` (centres unmarked) [Example B139, bicyclo[3.1.0]hexan-3-yl(7-cyclopropylimidazo[1,5-a]pyridin-8-yl)methanol] registered an EC50 in test [1] (setting [3]) of 0.199 µM. Further, the IC50 at Recombinant IDO1 (setting [3]) stood at 85 nM.

`OC(c1c(C2CC2)ccn2cncc12)C1CCC2CC2C1` (centres unmarked) [Example B140, bicyclo[4.1.0]heptan-3-yl(7-cyclopropylimidazo[1,5-a]pyridin-8-yl)methanol] had an EC50 in test [1] (setting [3]) of 0.147 µM. Also, the IC50 on Recombinant IDO1 (setting [3]) was 71 nM.

As to `OC(c1c(C2CC2)ccn2cncc12)C1C=CCCC1` (centres unmarked) [Example B141, cyclohex-2-en-1-yl(7-cyclopropylimidazo[1,5-a]pyridin-8-yl)methanol], in test [1] (setting [3]), the response was half-maximal at 1.7 µM (EC50). Besides, at Recombinant IDO1 (setting [3]), the IC50 amounted to 45 nM.

The compound `OC1CC2CC1CC2C(O)c1c(C2CC2)ccn2cncc12` (centres unmarked) [Example B142, 5-((7-cyclopropylimidazo[1,5-a]pyridin-8-yl)(hydroxy)methyl)bicyclo[2.2.1]heptan-2-ol] returned an EC50 in test [1] (setting [3]) of 6.32 µM. On Recombinant IDO1 (setting [3]), the IC50 was 1300 nM.
